According to patent US20210382058A1, “PATIENT SELECTION FOR TREATMENT OF MYC POSITIVE CANCERS WITH INDENOISOQUINOLINES” (Purdue Research Foundation, priority 2020, published 2021):
Read-outs that look alike come from different tables or passages of the source.

Experiments:
[1] = system: MYC protein expression in MCF-7 breast cancer cells; assay: Western blotting of MYC protein level in MCF-7 cells; assay type: cell-based, human; conditions: Homo sapiens, MCF7; western blotting, MCF-7 cells, 0.5, 1, 2, and 4 μM, 24 hours; read-out: MYC Inhibition
Outline: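 Immunoblotting with ECL detection quantified MYC, with GAPDH (1:2000) as reference and anti-MYC at 1:1000.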

[2] = system: NCI-60 cancer cell lines; assay: NCI-60 cancer cell line drug screen (GI50, MGM); assay type: cell-based, human; conditions: Homo sapiens; for GI50: read-out: Antiproliferative Activities [GI50 (μM)]
Experimental: Cancer cells were incubated with the test compounds at five concentrations ranging from 100 μM to 10 nM for 48 h. […] The approximate average of GI50 values across the entire panel of NCI-60 cancer cell lines for each compound was recorded as the MGM value.

[3] = biological target: T1, human topoisomerase I (Homo sapiens, UniProt P11387); conditions: relative topoisomerase I inhibition levels, previously determined, six levels (0 - 5, +++++ = 5); cited from earlier work
T1 sequence (P11387 1-765): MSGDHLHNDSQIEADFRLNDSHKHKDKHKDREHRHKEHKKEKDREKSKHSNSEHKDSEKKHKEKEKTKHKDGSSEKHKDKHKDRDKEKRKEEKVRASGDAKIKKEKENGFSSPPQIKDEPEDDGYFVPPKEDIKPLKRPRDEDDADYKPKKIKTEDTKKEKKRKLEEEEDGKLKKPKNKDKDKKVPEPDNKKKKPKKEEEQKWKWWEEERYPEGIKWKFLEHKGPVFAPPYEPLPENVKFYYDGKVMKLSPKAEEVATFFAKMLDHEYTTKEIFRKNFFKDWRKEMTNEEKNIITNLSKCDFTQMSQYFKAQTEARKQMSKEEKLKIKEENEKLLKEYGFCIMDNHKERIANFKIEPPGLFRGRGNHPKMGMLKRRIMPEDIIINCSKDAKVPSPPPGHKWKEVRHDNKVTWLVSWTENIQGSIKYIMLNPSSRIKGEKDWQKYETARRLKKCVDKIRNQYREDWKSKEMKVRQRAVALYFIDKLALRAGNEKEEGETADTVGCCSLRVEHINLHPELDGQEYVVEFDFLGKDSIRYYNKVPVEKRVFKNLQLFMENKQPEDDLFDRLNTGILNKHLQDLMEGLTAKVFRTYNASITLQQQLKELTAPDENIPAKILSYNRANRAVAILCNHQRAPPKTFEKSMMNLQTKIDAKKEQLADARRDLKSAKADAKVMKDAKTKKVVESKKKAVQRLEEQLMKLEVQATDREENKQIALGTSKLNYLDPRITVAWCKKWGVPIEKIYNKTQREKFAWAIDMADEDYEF

In the case of `CN(C)CCCn1c2c(c3ccc(N4CCNCC4)cc3c1=O)C(=O)c1ccccc1-2` [Compound 25], the minimal effective concentration [1] is reported as greater than 4 µM, the GI50 ([2]; 786-0, Renal Cancer, 786-0) is reported as 1.34 µM and the GI50 ([2]; A549, Non-Small Cell Lung Cancer, A549/ATCC) is reported as 0.22 µM. It also gave a GI50 ([2]; ACHN, Renal Cancer, ACHN) of 0.39 µM, a GI50 ([2]; BT-549, Breast Cancer, BT-549) of 1.27 µM and a GI50 ([2]; CAKI-1, Renal Cancer, CAKI-1) of 1.05 µM. It also gave a GI50 ([2]; CCRF-CEM, Leukemia, CCRF-CEM) of 0.34 µM, a GI50 ([2]; COLO 205, Colon Cancer, COLO 205) of 0.62 µM and a GI50 ([2]; DU-145, Prostate Cancer, DU-145) of 0.33 µM. The GI50 ([2]; EKVX, Non-Small Cell Lung Cancer, EKVX) was 1.18 µM, the GI50 ([2]; HCC 2998, Colon Cancer, HCC-2998) was 0.35 µM and the GI50 ([2]; HCT-15, Colon Cancer, HCT-15) was 0.73 µM. It also gave a GI50 ([2]; HL-60, Leukemia, HL-60(TB)) of 1.17 µM, a GI50 ([2]; HOP-62, Non-Small Cell Lung Cancer, HOP-62) of 1.06 µM and a GI50 ([2]; HOP-92, Non-Small Cell Lung Cancer, HOP-92) of 1.72 µM. The GI50 ([2]; HT-29, Colon Cancer, HT29) was 0.35 µM, the GI50 ([2]; Hs-578T, Breast Cancer, HS 578T) was 1.44 µM and the GI50 ([2]; IGROV-1, Ovarian Cancer, IGROV1) was 0.84 µM. The GI50 ([2]; K562, Leukemia, K-562) was 0.83 µM, the GI50 ([2]; KM12, Colon Cancer, KM12) was 1.13 µM and the GI50 ([2]; LOX IMVI, Melanoma, LOX IMVI) was 0.15 µM. For the same compound, the GI50 ([2]; Leukemia, SR) was 0.31 µM, the GI50 ([2]; MCF7, Breast Cancer, MCF7) was 0.3 µM and the GI50 ([2]; MDA-MB-231, Breast Cancer, MDA-MB-231/ATCC) was 0.51 µM. It also gave a GI50 ([2]; MDA-MB-435, Melanoma, MDA-MB-435) of 1.2 µM, a GI50 ([2]; MDA-MB-468, Breast Cancer, MDA-MB-468) of 0.95 µM and a GI50 ([2]; MOLT-4, Leukemia, MOLT-4) of 0.1 µM. For the same compound, the GI50 ([2]; Malme-3M, Melanoma, MALME-3M) was 1.42 µM, the GI50 ([2]; Melanoma, M14) was 1.05 µM and the GI50 ([2]; NCI-H23, Non-Small Cell Lung Cancer, NCI-H23) was 1.05 µM. The GI50 ([2]; NCI-H226, Non-Small Cell Lung Cancer, NCI-H226) was 0.56 µM, the GI50 ([2]; NCI-H322M, Non-Small Cell Lung Cancer, NCI-H322M) was 0.45 µM and the GI50 ([2]; NCI-H460, Non-Small Cell Lung Cancer, NCI-H460) was 0.31 µM. It also gave a GI50 ([2]; NCI-H522, Non-Small Cell Lung Cancer, NCI-H522) of 0.96 µM, a GI50 ([2]; OVCAR-3, Ovarian Cancer, OVCAR-3) of 1.05 µM and a GI50 ([2]; OVCAR-4, Ovarian Cancer, OVCAR-4) of 0.34 µM. The GI50 ([2]; OVCAR-5, Ovarian Cancer, OVCAR-5) was 2.12 µM, the GI50 ([2]; OVCAR-8, Ovarian Cancer, OVCAR-8) was 0.4 µM and the GI50 ([2]; Ovarian Cancer, NCl/ADR-RES) was 1.16 µM. It also gave a GI50 ([2]; Prostate Cancer, PC-3) of 0.86 µM, a GI50 ([2]; RPMI-8226, Leukemia, RPMI-8226) of 0.27 µM and a GI50 ([2]; RXF 393, Renal Cancer, RXF 393) of 1.29 µM. For the same compound, the GI50 ([2]; Renal Cancer, U0-31) was 0.77 µM, the GI50 ([2]; SF-268, CNS Cancer, SF-268) was 0.95 µM and the GI50 ([2]; SF-295, CNS Cancer, SF-295) was 1.16 µM. For the same compound, the GI50 ([2]; SF-539, CNS Cancer, SF-539) was 1.61 µM, the GI50 ([2]; SK-MEL-2, Melanoma, SK-MEL-2) was 1.71 µM and the GI50 ([2]; SK-MEL-5, Melanoma, SK-MEL-5) was 0.7 µM. For the same compound, the GI50 ([2]; SK-MEL-28, Melanoma, SK-MEL-28) was 1.53 µM, the GI50 ([2]; SK-OV-3, Ovarian Cancer, SK-OV-3) was 1.05 µM and the GI50 ([2]; SN12C, Renal Cancer, SN12C) was 0.33 µM. It also gave a GI50 ([2]; SNB-19, CNS Cancer, SNB-19) of 0.54 µM, a GI50 ([2]; SNB-75, CNS Cancer, SNB-75) of 0.95 µM and a GI50 ([2]; SW-620, Colon Cancer, SW-620) of 0.16 µM. It also gave a GI50 ([2]; T47D, Breast Cancer, T-47D) of 1.55 µM, a GI50 ([2]; TK-10, Renal Cancer, TK-10) of 1.33 µM and a GI50 ([2]; U-251, CNS Cancer, U251) of 0.64 µM. It also gave a GI50 ([2]; UACC-62, Melanoma, UACC-62) of 1.03 µM, a GI50 ([2]; UACC-257, Melanoma, UACC-257) of 1.69 µM and a mean GI50 across NCI-60 panel (MGM) ([2]; average of GI50 values across the entire panel of NCI-60 cancer cell lines) of 720 nM. The “Top1 Inhibiton” value [3] was “++ (medium inhibition, ++, MYC expression inhibited at 2.0 μM, or no clear dose-dependent MYC inhibition)”.
